The text below walks through data of PubChem BioAssay AID1996.

≈ marks a conversion by molar mass, not a printed value.

For the data set the following is noted: buffer; pH 7.4; 200.0 µM.
`COc1ccc(C(=O)NC(C(=O)NCC2CCCO2)C(C)C)cc1` (stereo not given) yielded a kinetic solubility above 50.2 µg/mL.
For `COc1ccc(C(=O)OCC(=O)NCCc2ccc(F)cc2)cc1S(=O)(=O)N1CCOCC1`, the kinetic solubility was above 72.1 µg/mL.
On to `CC(=O)c1ccc(N2CCC(C)CC2)c(F)c1`, for which the solubility (kinetic) was determined as 6 µg/mL (≈ 25.5 µM).
Molecule `C=CCN(Cc1ccc(Cl)s1)C(=O)c1ccc(F)c(S(=O)(=O)N2CCOCC2)c1` showed a kinetic solubility of 23.8 µg/mL (≈ 51.9 µM).
As to `O=C(Nc1ccc(F)c(F)c1)C1=COCCO1`, the kinetic solubility was determined as 35.6 µg/mL (≈ 148 µM).
In the case of `Cc1cc(C)cc(NS(=O)(=O)c2ccc3[nH]c(=O)ccc3c2)c1` it was 1.5 µg/mL (≈ 4.57 µM).
For `O=C(Cc1cccs1)Nc1ccc([N+](=O)[O-])cc1`, the solubility (kinetic) was determined as 39 µg/mL (≈ 149 µM).
`COc1cc(-c2noc(C)n2)cc(OC)c1OC` came in with a solubility (kinetic) of 35.7 µg/mL (≈ 143 µM).
For `CCOC(=O)Cc1csc(NC(=O)COc2ccc(C)cc2)n1`, the kinetic solubility is above 50.2 µg/mL.
In turn, `Cc1c(C)c2ccc(OCC(=O)Nc3cccnc3)cc2oc1=O` returned a solubility (kinetic) of 1.3 µg/mL (≈ 4.01 µM).
`Cc1nc(SCC(=O)N2CCOCC2)c2c(=O)n(C)c(=O)n(CC(C)C)c2n1` gave a solubility (kinetic) of 47.8 µg/mL (≈ 117 µM).
Take `Cc1ccc(C(=O)O/N=C2/CC3CCC2(C)[C@@]3(C)CBr)cc1` (stereo not given in full): the solubility (kinetic) was below 0.8 µg/mL.
As to `CC1(C)CC(NC(=S)Nc2ccc([N+](=O)[O-])cc2)CC(C)(C)N1`, the solubility (kinetic) is 42.1 µg/mL (≈ 125 µM).
Molecule `Cc1ccc(/C=C(\C#N)C(=O)NC(C)C)o1` showed a solubility (kinetic) above 32.7 µg/mL.
The molecule `Cc1ccc(CN2CCCN(C)CC2)c(C)c1` registered a solubility (kinetic) of 23.4 µg/mL (≈ 101 µM).
The molecule `O=C(COC(=O)C12CC3CC(CC(Cl)(C3)C1)C2)N1CCCCC1` came in with a kinetic solubility of 27.5 µg/mL (≈ 80.9 µM).
The molecule `O=[N+]([O-])c1cc(F)c(N2CCCCC2)cc1Br` displayed a solubility (kinetic) of 0.3 µg/mL (≈ 0.99 µM).
Turning to `COc1ccc(C2NC(=O)CCC2[N+](=O)[O-])cc1OC` (stereo not given), the kinetic solubility was above 42 µg/mL.
Regarding `O=C1Nc2ccccc2O/C1=C\c1c(F)cccc1Cl`, the solubility (kinetic) amounted to 0.7 µg/mL (≈ 2.42 µM).
Regarding `Cl.Fc1c(F)c(F)c(N2CCNCC2)c(F)c1F`, the solubility (kinetic) is above 43.3 µg/mL.
In the case of `Cc1ccc(C(=O)N/C(=C\c2ccco2)C(=O)N2CC(C)OC(C)C2)cc1C` (stereo not given), the solubility (kinetic) was above 57.4 µg/mL.
In the case of `OC(COc1ccc(Cl)cc1Cl)Cn1ccnc1` (stereo not given) it was 39.6 µg/mL (≈ 138 µM); in that of `CCOc1ccc(Br)cc1CNCc1cccnc1`, above 48.2 µg/mL; in that of `CCc1ccccc1Nc1nc(-c2cccnc2)cs1`, 3.6 µg/mL (≈ 12.8 µM).
The molecule `Cc1ccc(S(=O)(=O)N2CCC(C(=O)NCC3CC3)CC2)cc1` returned a kinetic solubility of 31.7 µg/mL (≈ 94.2 µM).
In the case of `Cc1c(C(=O)N(C)Cc2ccccc2)oc2c(Cl)cccc12`, the solubility (kinetic) amounted to 8.4 µg/mL (≈ 26.8 µM).
In the case of `Cc1ccc(NC(=O)Nc2cc(C(F)(F)F)c[nH]c2=O)cc1` it was 0.4 µg/mL (≈ 1.29 µM).
Take `O=S(=O)(c1ccc(F)cc1)N1CCN(c2ncccn2)CC1`: the kinetic solubility stood at 8.3 µg/mL (≈ 25.7 µM).
For `CCCc1nc(SC)[nH]c(=O)c1C`, the kinetic solubility was above 29.7 µg/mL.
In turn, `O=C(c1c[nH]c2ccccc12)N1CCOCC1` came in with a kinetic solubility of 26.3 µg/mL (≈ 114 µM).
Consider `COc1ccc(-c2cncnc2-c2ccc(OC)cc2O)cc1`, for which the kinetic solubility was 38.6 µg/mL (≈ 125 µM).
As to `Cc1nn(C)c(C)c1/C=C/C(=O)O`, the solubility (kinetic) was above 27 µg/mL.
In the case of `CCc1ccccc1NC(=O)Nc1ccon1` it was 29.1 µg/mL (≈ 126 µM).
In the case of `Clc1ccc2oc(SCc3cccnc3)nc2c1` it was 3.5 µg/mL (≈ 12.6 µM).
In the case of `COc1ccc(CCNC(=O)COC(=O)c2ccc(C)s2)cc1`, the solubility (kinetic) was 27.6 µg/mL (≈ 82.8 µM).
Molecule `Clc1cccc2c1CCN(Cc1nc(-c3cnccn3)no1)C2` came in with a kinetic solubility of 33.9 µg/mL (≈ 103 µM).
For `Cc1ccc(C(=O)OCC(=O)NCC2CCCO2)c(C)c1` (stereo not given), the solubility (kinetic) was above 43.7 µg/mL.
In the case of `O=c1[nH]c(O)c(C=NCCc2ccccc2)c(=O)[nH]1` it was 3.6 µg/mL (≈ 13.9 µM); in that of `O=C(NC(=S)Nc1cccc(O)c1)C1CCCCC1`, above 41.8 µg/mL.
In the case of `Cc1cccc(C)c1N1CCN(C(=O)Cn2cncn2)CC1` it was above 44.9 µg/mL; in that of `COc1cccc(NC(=O)CSc2nc(C3CC3)nc3ccccc23)c1`, below 0.3 µg/mL; in that of `CC(=O)Nc1ccc(S(=O)(=O)Nc2ccc3c(c2)CCC3)cc1`, 4.2 µg/mL (≈ 12.7 µM).
As to `CCCCn1c2ccccc2c2cc(CC(N)=O)ccc21`, the solubility (kinetic) amounted to 3.8 µg/mL (≈ 13.6 µM).
Consider `O=[N+]([O-])c1ccc(Oc2ccc(S(=O)(=O)N3CCOCC3)cc2)cc1`, for which the solubility (kinetic) turned out to be 18.1 µg/mL (≈ 49.7 µM).
In the case of `CC(=O)c1cccc(OCCCOc2cccc3cccnc23)c1`, the kinetic solubility was 37.2 µg/mL (≈ 116 µM).
In the case of `COc1ccc(-n2cnc3ccccc3c2=O)c([N+](=O)[O-])c1`, the kinetic solubility is above 44.6 µg/mL.
In the case of `Cc1cc(C)n2nc(SCCC(=O)NCc3ccccc3)nc2n1` it was above 51.2 µg/mL; in that of `Nc1ccccc1S(=O)(=O)NCCCCc1ccccc1`, 28.7 µg/mL (≈ 94.3 µM); in that of `CN(CCc1nnc(N)s1)[N+](=O)[O-]`, above 30.5 µg/mL.
With `COC(=O)c1[nH]c2c(c1C)C(=O)CC(c1ccc(OC)cc1)C2` (stereo not given), the solubility (kinetic) came to 2.7 µg/mL (≈ 8.62 µM).
In the case of `O=C(Nc1ccc(OC(F)(F)F)cc1)c1cnccn1` it was 11.3 µg/mL (≈ 39.9 µM); in that of `Cc1cc(C)c2[nH]c(C)c(CN3CCCCCC3)c(=O)c2c1`, above 44.8 µg/mL.
Turning to `CC(=O)c1ccc(S(=O)(=O)NCc2cccnc2)cc1`, the solubility (kinetic) is above 43.6 µg/mL.
In the case of `COc1ccc(C(=O)O/N=C(\N)c2ccccn2)cc1` it was above 40.7 µg/mL.
`Brc1cccc(CN2CCCCCC2)c1`: the solubility (kinetic) is 15.2 µg/mL (≈ 56.7 µM).
Consider `Cc1ccc(NC(=O)C2CC2)cc1S(=O)(=O)N1CCOCC1`, for which the solubility (kinetic) is above 48.7 µg/mL.
In the case of `CNc1ccc([N+](=O)[O-])cc1C(=O)O`, the kinetic solubility amounted to 26.7 µg/mL (≈ 136 µM).
Take `O=c1cc(O)c2c(=O)n(Cc3ccccc3)c3ccccc3c2o1`: the solubility (kinetic) came to 32.6 µg/mL (≈ 102 µM).
`Cc1ccccc1C(=O)N1CCC(C(=O)Nc2nccs2)CC1` registered a kinetic solubility of 46.7 µg/mL (≈ 142 µM).
In the case of `CN(C)Cc1ccccc1Sc1ccc2c(c1)CCCC2.O=C(O)C(=O)O` it was 5.5 µg/mL.
`CSc1ccc(S(=O)(=O)N2CC(=O)Nc3ccccc32)cc1` displayed a solubility (kinetic) of 14.4 µg/mL (≈ 43.1 µM).
Molecule `Cc1ccc(NCc2nc3ccccc3n2C)cc1C` came in with a solubility (kinetic) of 22.1 µg/mL (≈ 83.3 µM).
`N#Cc1c(Nc2ccccc2C(F)(F)F)s[nH]c1=O` showed a kinetic solubility above 42.8 µg/mL.
The molecule `CCC(C)NC(=O)c1ccc(C(=O)c2ccccc2)cc1` (stereo not given) gave a solubility (kinetic) of 41.6 µg/mL (≈ 148 µM).
`Cc1ccc(Nc2nc(N)c3ccccc3n2)cc1C.Cl`: the kinetic solubility worked out at 5.9 µg/mL.
The molecule `CCN1CCN(c2nc3ccccn3c(=O)c2C=O)CC1` yielded a solubility (kinetic) above 42.9 µg/mL.
Regarding `O=C(O)C(Cc1ccccc1)n1c(=S)[nH]c2ccccc2c1=O` (stereo not given), the solubility (kinetic) was above 49 µg/mL.
In the case of `Cc1cc(C)c(NC(=O)COC(=O)C2CCCCC2)c(C)c1` it was 5.6 µg/mL (≈ 18.5 µM).
`Cc1ccnc2c1ccc1ccccc12` registered a kinetic solubility below 0.4 µg/mL.
Regarding `S=C(NCc1cccs1)Nc1cccc2ccccc12`, the kinetic solubility came out at 30.5 µg/mL (≈ 102 µM).
As for `Cc1cc(C)nc(N2CCC(C(=O)NCc3ccccc3F)CC2)n1`, the solubility (kinetic) was 0.3 µg/mL (≈ 0.876 µM).
In the case of `CCOc1ccc(CCNC(=O)COC(=O)c2ccc(C)s2)cc1OCC` it was 23.7 µg/mL (≈ 60.5 µM).
Molecule `COc1ccc(NC(=O)CSc2ccc3c(c2)OCCO3)cc1` registered a solubility (kinetic) of 46.1 µg/mL (≈ 139 µM).
On to `CC(=O)c1ccccc1OC(=O)c1ccc([N+](=O)[O-])o1`, for which the kinetic solubility was above 41.3 µg/mL.
`CCN(C(=O)/C=C/c1ccccc1)C1CCCCC1` showed a kinetic solubility above 38.6 µg/mL.
`O=c1cc(C(F)(F)F)nc(-c2ccccc2OC(F)(F)F)[nH]1` gave a kinetic solubility above 48.6 µg/mL.
Regarding `Fc1ccc(-n2cc(-c3ccccc3)c3c(=S)nc[nH]c32)cc1`, the solubility (kinetic) was below 0.2 µg/mL.
Regarding `CC(=O)c1cccc(NC(=O)c2ccc3ccccc3c2)c1`, the kinetic solubility amounted to 1.9 µg/mL (≈ 6.57 µM).
Molecule `CCN(CC)CCSc1nc2ccc(OC)cc2[nH]1.Cl` showed a kinetic solubility above 52.8 µg/mL.
`O=C1CN(/N=C/c2ccc([N+](=O)[O-])o2)C(=O)N1` had a kinetic solubility above 35.7 µg/mL.
In turn, `C=CCn1c(O)c(/C=N/NC(=O)c2ccncc2)c(=O)[nH]c1=O` gave a solubility (kinetic) above 47.3 µg/mL.
The molecule `COc1ccccc1C(=O)N/C(=C\c1ccccc1)C(=O)NC(C)C(=O)O` (stereo not given) showed a kinetic solubility of 52.2 µg/mL (≈ 142 µM).
In the case of `O=C(Cn1cnc2c(oc3ccccc32)c1=O)N1CCCC1` it was above 44.6 µg/mL; in that of `O=C(NC1CC1)c1sc2cc(Cl)ccc2c1Cl`, 1.2 µg/mL (≈ 4.19 µM).
In the case of `CC(C)N(Cc1ccccc1)C(=O)c1ccc2c(c1)OCO2` it was 42.8 µg/mL (≈ 144 µM); in that of `Cc1ccc(C(=O)NCCNS(=O)(=O)c2ccccc2)cn1`, above 47.9 µg/mL.
In the case of `CSc1nc(NCCCO)c2c3c(sc2n1)CN(C)CC3` it was 41.7 µg/mL (≈ 129 µM); in that of `CC1CCN(C(=O)COc2ncnc3ccccc23)CC1`, 35.7 µg/mL (≈ 125 µM); in that of `Cn1cnc(Sc2ncnc3nc[nH]c23)c1[N+](=O)[O-]`, 29.7 µg/mL (≈ 107 µM).
The molecule `CCN(CC)CCCNc1ncnc2scc(-c3ccc(F)cc3)c12` came in with a solubility (kinetic) above 53.8 µg/mL.
`CC(C)NC(=O)COc1ccccc1C#N` gave a solubility (kinetic) above 32.7 µg/mL.
Turning to `O=C(COC(=O)c1cnc(Cl)c(Cl)c1)NC1CC1`, the solubility (kinetic) is above 43.4 µg/mL.
Regarding `CN(C)c1nc(C(=O)O)nc(N2CCOCC2)n1`, the solubility (kinetic) is 36.2 µg/mL (≈ 143 µM).
As for `CCSc1nc2sc3c(c2c(=O)[nH]1)CC(C)(C)OC3`, the solubility (kinetic) is 3.1 µg/mL (≈ 10.5 µM).
`COc1cc(=O)[nH]c(SC(C)C(=O)Nc2cc(C)on2)n1` (stereo not given) gave a kinetic solubility above 46.5 µg/mL.
`O=C(Nc1ccc(Nc2ccccc2)cc1)c1ccc(F)cc1`: the solubility (kinetic) came to 0.7 µg/mL (≈ 2.29 µM).
`COc1ccccc1/C=C/C(=O)OCC(=O)NC(=O)NC1CCCC1`: the solubility (kinetic) amounted to 13.8 µg/mL (≈ 39.8 µM).
In the case of `CC(=O)Nc1ccc(Nc2cc(C)c3ccccc3n2)cc1` it was 41.6 µg/mL (≈ 143 µM); in that of `CCOC(=O)N1CCN(C(=O)/C=C/c2ccc(OC)cc2)CC1`, 36.1 µg/mL (≈ 113 µM).
In the case of `COC(=O)[C@H](CCSC)NC(=O)NC1CC1`, the kinetic solubility was above 36.9 µg/mL.
Turning to `Cc1cnc(C(=O)Oc2ccc(-c3ccccc3)cc2)cn1`, the kinetic solubility stood at 2.8 µg/mL (≈ 9.64 µM).
`COc1ccc(CNC(=O)c2cccnc2SC)cc1OC` gave a kinetic solubility above 47.8 µg/mL.
Take `CC(C)(C)c1ccc(NC(=O)c2c(F)cccc2Cl)cc1`: the kinetic solubility is 1.1 µg/mL (≈ 3.6 µM).
Turning to `COc1cc([N+](=O)[O-])ccc1Nc1nc(C)cc(C)n1.Cl`, the kinetic solubility is 0.5 µg/mL.
In turn, `O=c1oc(/C=C/c2ccc([N+](=O)[O-])s2)nc2ccccc12` returned a kinetic solubility of 0.5 µg/mL (≈ 1.67 µM).

Broadly, the solubility (kinetic) is the concentration staying in solution when a stock, usually in DMSO, is diluted into the medium.
